Reference: ChEMBL document CHEMBL4811252, “Identification of novel 1,3-diaryl-1,2,4-triazole-capped histone deacetylase 6 inhibitors with potential anti-gastric cancer activity” (Eur J Med Chem, 2021)

What was measured:
[1] = biological target: T1, Protein deacetylase HDAC6 (Homo sapiens) (UniProt Q9UBN7); conditions: Sf9, dose 100.0 nM, time 40.0 min
T1 sequence (whole entry): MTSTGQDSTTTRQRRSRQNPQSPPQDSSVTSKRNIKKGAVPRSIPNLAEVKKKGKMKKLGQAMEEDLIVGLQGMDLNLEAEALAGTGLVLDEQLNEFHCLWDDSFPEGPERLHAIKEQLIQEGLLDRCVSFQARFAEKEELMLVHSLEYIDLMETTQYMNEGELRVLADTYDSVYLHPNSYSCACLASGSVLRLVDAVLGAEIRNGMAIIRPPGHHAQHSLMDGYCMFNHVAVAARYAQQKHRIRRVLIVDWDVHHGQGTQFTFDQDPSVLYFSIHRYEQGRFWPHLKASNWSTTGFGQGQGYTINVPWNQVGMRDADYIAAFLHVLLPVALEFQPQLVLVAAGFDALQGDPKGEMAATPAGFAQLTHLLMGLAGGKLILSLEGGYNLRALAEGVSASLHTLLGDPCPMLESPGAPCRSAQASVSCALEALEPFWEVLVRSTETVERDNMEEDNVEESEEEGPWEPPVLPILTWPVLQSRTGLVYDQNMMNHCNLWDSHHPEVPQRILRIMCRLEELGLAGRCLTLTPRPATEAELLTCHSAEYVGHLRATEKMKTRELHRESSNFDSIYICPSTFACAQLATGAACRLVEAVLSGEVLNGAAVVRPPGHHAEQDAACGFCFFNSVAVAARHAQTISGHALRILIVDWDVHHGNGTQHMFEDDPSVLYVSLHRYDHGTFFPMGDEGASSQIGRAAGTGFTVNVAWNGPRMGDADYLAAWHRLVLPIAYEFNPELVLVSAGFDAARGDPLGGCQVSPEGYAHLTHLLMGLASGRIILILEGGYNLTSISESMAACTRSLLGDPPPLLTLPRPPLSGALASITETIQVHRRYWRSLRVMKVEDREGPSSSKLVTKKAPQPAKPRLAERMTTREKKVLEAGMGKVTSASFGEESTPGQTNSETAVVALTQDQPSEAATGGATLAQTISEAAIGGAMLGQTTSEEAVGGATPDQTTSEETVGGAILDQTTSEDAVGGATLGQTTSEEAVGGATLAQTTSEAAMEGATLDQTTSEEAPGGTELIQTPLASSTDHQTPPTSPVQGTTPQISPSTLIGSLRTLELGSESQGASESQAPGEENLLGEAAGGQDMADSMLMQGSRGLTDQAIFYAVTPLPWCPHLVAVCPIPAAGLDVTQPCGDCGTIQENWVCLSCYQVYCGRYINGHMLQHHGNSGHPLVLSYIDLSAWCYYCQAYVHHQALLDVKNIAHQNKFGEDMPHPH

Histone deacetylase 1 [2] = biological target: T2, Histone deacetylase 1 (Homo sapiens, UniProt Q13547); conditions: dose 100.0 nM, time 40.0 min
T2 sequence (Q13547 whole entry): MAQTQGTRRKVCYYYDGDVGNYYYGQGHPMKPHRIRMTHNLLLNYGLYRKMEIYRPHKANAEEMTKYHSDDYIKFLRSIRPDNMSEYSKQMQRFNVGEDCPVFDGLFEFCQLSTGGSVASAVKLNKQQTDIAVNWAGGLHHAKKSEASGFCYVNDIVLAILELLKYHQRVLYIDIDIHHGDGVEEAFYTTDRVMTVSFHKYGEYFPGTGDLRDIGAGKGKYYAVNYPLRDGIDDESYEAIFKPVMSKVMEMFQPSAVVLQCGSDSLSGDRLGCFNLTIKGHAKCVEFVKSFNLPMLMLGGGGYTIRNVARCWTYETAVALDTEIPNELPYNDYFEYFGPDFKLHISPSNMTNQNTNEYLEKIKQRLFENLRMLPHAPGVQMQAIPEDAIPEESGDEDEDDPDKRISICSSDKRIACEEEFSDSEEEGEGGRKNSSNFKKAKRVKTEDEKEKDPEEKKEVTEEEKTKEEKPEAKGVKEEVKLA

MGC-803 = assay: Antiproliferative activity against human MGC803 cells incubated for 72 hrs by MTT assay; assay type: functional, cell-based; conditions: MGC-803, 72 h
[3] = biological target: T3, Protein deacetylase HDAC6 (Homo sapiens, UniProt Q9UBN7); assay: Inhibition of recombinant full length human HDAC6 expressed in baculovirus infected Sf9 cells using Z-(Ac)-Lys-AMC as substrate incubated for 40 mins by fluorescence based assay
T3 sequence (Q9UBN7 whole entry): T1 sequence (whole entry)

Histone deacetylase 1 [4] = biological target: T2, Histone deacetylase 1; assay: Inhibition of recombinant human HDAC1 using Z-(Ac)-Lys-AMC as substrate incubated for 40 mins by fluorescence based assay

Compound	inhibition [1] [%]	inhibition (Histone deacetylase 1 [2]) [%]	IC50 (MGC-803) [nM]	IC50 [3] [nM]	IC50 (Histone deacetylase 1 [4]) [nM]
Cc1ccc(-n2nc(-c3ccccc3)nc2CNc2ccc(C(=O)NO)cc2)cc1C	53	11			
O=C(NO)c1ccc(NCc2nc(-c3ccccc3)nn2-c2ccccc2Cl)cc1	64.6	17	9630	669	3120
O=C(NO)c1ccc(NCc2nc(-c3ccc(Cl)c(Cl)c3)nn2-c2ccccc2)cc1	34.5	7.6			
O=C(NO)c1ccc(NCc2nc(-c3ccccc3Cl)nn2-c2ccccc2)cc1	75	15.6	> 20000	185	3830
Cc1ccc(-c2nc(CNc3ccc(C(=O)NO)cc3)n(-c3ccccc3)n2)o1	60.7	22.3			
O=C(NO)c1ccc(NCc2nc(-c3ccccc3)nn2-c2ccccc2)cc1	72.6	19	17700	112	2490
CC(C)c1ccc(-c2nc(CNc3ccc(C(=O)NO)cc3)n(-c3ccccc3)n2)cc1	27.6	4.3			
O=C(NO)c1ccc(NCc2nc(-c3cc4ccccc4s3)nn2-c2ccccc2)cc1	65.5	26	6110	324	1460
NNC(=O)c1ccc(NCc2nc(-c3ccccc3)nn2-c2ccccc2)cc1	10	4.1			
O=C(NO)c1ccc(NCc2nc(-c3ccncc3)nn2-c2ccccc2)cc1	30.8	7.5			
O=C(NO)c1ccc(NCc2nc(-c3ccco3)nn2-c2ccccc2)cc1	59.9	16.7			
O=C(NO)c1ccc(NCc2nc(-c3cccc(Cl)c3)nn2-c2ccccc2)cc1	61.2	17	5760	115	1870
CCc1ccc(-c2nc(CNc3ccc(C(=O)NO)cc3)n(-c3ccccc3)n2)cc1	54.6	13.2			
Cc1ccsc1-c1nc(CNc2ccc(C(=O)NO)cc2)n(-c2ccccc2)n1	72.1	26.3	8890	30.7	3200
O=C(NO)c1ccc(NCc2nc(-c3cccs3)nn2-c2ccc(O)cc2)cc1	79.6	38.4	> 20000	33.5	1500
COc1ccc(-n2nc(-c3ccccc3)nc2CNc2ccc(C(=O)NO)cc2)cc1	63.4	26.2	7050	127	883
O=C(NO)c1ccc(NCc2nc(-c3ccccc3)nn2-c2ccc(Cl)cc2)cc1	55.4	18			
NC(=O)c1ccc(NCc2nc(-c3ccccc3)nn2-c2ccccc2)cc1	-4.4	-2.6			
O=C(NO)c1ccc(NCc2nc(-c3cccc4cnccc34)nn2-c2ccccc2)cc1	40.2	11.2			
O=C(NO)c1ccc(NCc2nc(-c3ccc(Br)o3)nn2-c2ccccc2)cc1	55.8	13.8			
CCc1ccc(-n2nc(-c3ccccc3)nc2CNc2ccc(C(=O)NO)cc2)cc1	38.3	10.8			
O=C(NO)c1ccc(NCc2nc(-c3ccccc3)nn2-c2ccc(C(F)(F)F)cc2)cc1	38.9	12.8			
Cc1cc(C)cc(-n2nc(-c3ccccc3)nc2CNc2ccc(C(=O)NO)cc2)c1	49.8	12.4			
Cc1ccc(-c2nc(CNc3ccc(C(=O)NO)cc3)n(-c3ccccc3)n2)cc1	62.2	20.3	> 20000	224	3100

Compound	inhibition [1] [%]	inhibition (Histone deacetylase 1 [2]) [%]	IC50 (MGC-803) [nM]	IC50 [3] [nM]	IC50 (Histone deacetylase 1 [4]) [nM]
O=C(NO)c1ccc(NCc2nc(-c3ccccn3)nn2-c2ccccc2)cc1	58.6	16			
Cc1ccccc1-c1nc(CNc2ccc(C(=O)NO)cc2)n(-c2ccccc2)n1	53.2	16.5			
O=C(NO)c1ccc(NCc2nc(-c3sccc3Br)nn2-c2ccccc2)cc1	71.1	23.7	6320	54.9	2080
O=C(NO)c1ccc(NCc2nc(-c3ccc(C(F)(F)F)cc3)nn2-c2ccccc2)cc1	41.6	4.9			
Cc1cccc(-c2nc(CNc3ccc(C(=O)NO)cc3)n(-c3ccccc3)n2)c1	64.1	13	8710	281	5520
O=C(NO)c1ccc(NCc2nc(-c3ccccc3)nn2-c2cccc(Cl)c2)cc1	62.3	14.7	13700	678	4400
COc1ccc(-c2nc(CNc3ccc(C(=O)NO)cc3)n(-c3ccccc3)n2)cc1	77.6	33.4	> 20000	163	2860
O=C(NO)c1ccc(NCc2nc(-c3ccccc3)nn2-c2ccc(Br)cc2)cc1	65.9	18.2	9300	1730	3200
Cc1cccc(-n2nc(-c3ccccc3)nc2CNc2ccc(C(=O)NO)cc2)c1	66	18.4	13200	388	3850
COc1ccc(-n2nc(-c3ccc(O)cc3)nc2CNc2ccc(C(=O)NO)cc2)cc1	70.3	25.9	> 20000	102	4300
O=C(NO)c1ccc(NCc2nc(-c3ccc(Br)cc3)nn2-c2ccccc2)cc1	54.7	13.2			
O=C(NO)c1ccc(NCc2nc(-c3ccc(Cl)cc3)nn2-c2ccccc2)cc1	67.2	19.5	5970	181	2420
O=C(NO)c1ccc(NCc2nc(-c3ccccc3)nn2-c2ccc(F)cc2)cc1	67.6	16.3	10500	274	1820
O=C(NO)c1ccc(NCc2nc(-c3ccsc3)nn2-c2ccccc2)cc1	53.4	15.2			
CC(C)c1ccc(-n2nc(-c3ccccc3)nc2CNc2ccc(C(=O)NO)cc2)cc1	52.6	17.3			
Cc1ccc(-n2nc(-c3ccccc3)nc2CNc2ccc(C(=O)NO)cc2)cc1	60.7	24.6		310	1720
O=C(NO)c1ccc(NCc2nc(-c3ccc(Cl)s3)nn2-c2ccccc2)cc1	39.8	8.3			
Nc1ccccc1NC(=O)c1ccc(NCc2nc(-c3ccccc3)nn2-c2ccccc2)cc1	5	32			
CNC(=O)c1ccc(NCc2nc(-c3ccccc3)nn2-c2ccccc2)cc1	-3.6	-0.55			
O=C(NO)c1ccc(NCc2nc(-c3cccnc3)nn2-c2ccccc2)cc1	57.7	12.9			
Cc1ccccc1-n1nc(-c2ccccc2)nc1CNc1ccc(C(=O)NO)cc1	57.1	17			
O=C(O)c1ccc(NCc2nc(-c3ccccc3)nn2-c2ccccc2)cc1	-0.4	2.1			
O=C(NO)c1ccc(NCc2nc(-c3ccc(F)cc3)nn2-c2ccccc2)cc1	70.9	20.8	8960	114	3400
